Molecules are shown by their SMILES.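 Tested at 5 concentrations; 48 h exposure; 96-well plates; endpoints linearly interpolated, else capped at highest concentration. GI50 is the concentration that inhibits growth by half.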 Calls of active or inactive are those of the source. No stated cut-off is given here; in the data, active = GI50 up to about 1.1 µM and inactive = higher.

Among the test systems are 786-0; A498; CAKI-1; HL-60; HOP-92; Malme-3M; NCI-H226; NCI-H460; OVCAR-5; OVCAR-8; SF-268; SF-295; SN12C; SNB-75; SW-620; TK-10; U-251; UO-31; SK-MEL-28.
Holding throughout (experiment): growth of human tumour cells (NCI), 48 h

Regarding `O=C1OC2C(O)COC2(O)C1(O)Cc1c[nH]c2ccccc12.O=C1OC2C(O)COC2(OCc2c[nH]c3ccccc23)C1O` (stereo not drawn), the GI50 with 786-0, in the assay on A498, in the assay on CAKI-1, in the assay on HL-60, in the assay with HOP-92 and with Malme-3M was > 100 µM (inactive) in each case. For the same compound, the GI50 in the assay on NCI-H226, in the assay on NCI-H460, with OVCAR-5, in the assay on OVCAR-8, in the assay on SF-268 and in the assay with SF-295 was > 100 µM (inactive) in each case. In addition, the GI50 with SN12C, in the assay with SNB-75, in the assay on SW-620, in the assay with TK-10, with U-251 and with UO-31 was > 100 µM (inactive) throughout.

`CCCN1CN(C(C(=O)N[C@@H]2C(=O)N3C(C(=O)O)=C(C)CSC23)c2ccccc2)CSC1=S` (stereo partly drawn): the GI50 in the assay on 786-0 was > 100 µM (inactive); with A498 it was > 100 µM (inactive); in the assay on HL-60 it was 86.9 µM (inactive); with HOP-92, > 100 µM (inactive); with Malme-3M, > 100 µM (inactive); in the assay on NCI-H460, 42.5 µM (inactive). Also, the GI50 with OVCAR-5, in the assay on OVCAR-8, in the assay on SF-268, in the assay with SF-295, in the assay on SK-MEL-28 and in the assay on SN12C was > 100 µM (inactive) in each case. In addition, the GI50 with SNB-75, in the assay on TK-10, in the assay with U-251 and in the assay with UO-31 was > 100 µM (inactive) each time.

For `COc1ccc2[nH]c3c(C)c4cc[n+](COC(=O)c5ccccc5)cc4c(C)c3c2c1`, the GI50 is 0.138 µM (active) in the assay with 786-0; 1.11 µM (active) in the assay with A498; 0.569 µM (active) in the assay on CAKI-1; 0.628 µM (active) with HL-60; 0.375 µM (active) with HOP-92; 1.43 µM (inactive) in the assay on Malme-3M. Also, the GI50 was 0.0357 µM (active) in the assay with NCI-H460; 0.879 µM (active) in the assay on OVCAR-5; 0.0851 µM (active) in the assay with OVCAR-8; 0.286 µM (active) in the assay on SF-268; 0.184 µM (active) with SF-295; 1.31 µM (inactive) in the assay on SK-MEL-28. The GI50 is 0.197 µM (active) with SN12C; 0.703 µM (active) in the assay with SNB-75; 0.0668 µM (active) in the assay on SW-620; 0.55 µM (active) with TK-10; 0.392 µM (active) in the assay on U-251; 1.76 µM (inactive) in the assay with UO-31.

As to `O=C(O)NC(c1ccccc1)C(NC(=O)c1ccccc1)c1ccccc1` (stereo not drawn), the GI50 in the assay on 786-0, in the assay on A498, with CAKI-1, in the assay with HOP-92, with Malme-3M and in the assay on NCI-H460 was > 100 µM (inactive) each time. Further, the GI50 in the assay on OVCAR-5, in the assay on OVCAR-8, with SF-268, in the assay on SF-295, in the assay with SK-MEL-28 and with SN12C was > 100 µM (inactive) each time. For the same compound, the GI50 with SNB-75, in the assay on SW-620, with TK-10 and in the assay with U-251 was > 100 µM (inactive) throughout.

The values above are taken from ChEMBL document CHEMBL1201862, “PubChem BioAssay data set” (2004).
